Results from patent US20110144049A1, “Treating Cardiac Arrhythmias, Heart Failure, Peripheral Artery Disease and Stroke with Cyclopentyl-Triazolo-Pyrimidine or Derivative Thereof” (priority 2009, published 2011).

Legend:
randomized patients = test: Listed Causes of Death from Efficacy Data Set (by randomized treatment); type: in vivo; conditions: Ticagrelor 90 mg bd N = 9333; Clopidcgrel 75 mg cd N = 9291
Text: Causes of death were similar between treatment groups. The most common cause of death was myocardial infarction occurring in about 1% of randomized patients. Sudden death, heart failure, other vascular events and stroke were among the more common causes of death.

[1] = tested on: individuals undergoing coronary stent implantation for therapy of Acute Coronary Syndrome (ASC); test: large randomized study, primary end point (death from vascular causes, MI or stroke); type: in vivo

CCCSc1nc(N[C@@H]2C[C@H]2c2ccc(F)c(F)c2)c2nnn([C@@H]3C[C@H](OCCO)[C@@H](O)[C@H]3O)c2n1 [Ticagrelor, (1S,2S,3R,5S)-3-[7-[(1R,2S)-2-(3,4-Difluorophenyl)cyclopropylamino]-5-(propylthio)-3H-[1,2,3]triazolo[4,5-d]pyrimidin-3-yl]-5-(2-hydroxyethoxy)cyclopentane-1,2-diol]
Cause of death: Aortic dissection, number (randomized patients): 1 | Cause of death: Aortic dissection, percent (randomized patients): (0.0%) | Cause of death: Arterial embolism, number (randomized patients): 0 | Cause of death: Arterial embolism, percent (randomized patients): (0.0%) | Cause of death: Cancer, number (randomized patients): 14 | Cause of death: Cancer, percent (randomized patients): (0.2%) | Cause of death: Cardiac arrhythmia, number (randomized patients): 20 | Cause of death: Cardiac arrhythmia, percent (randomized patients): (0.2%) | Cause of death: Death from bleeding (not related to trauma), number (randomized patients): 13 | Cause of death: Death from bleeding (not related to trauma), percent (randomized patients): (0.1%) | Cause of death: Endocarditis, number (randomized patients): 0 | Cause of death: Endocarditis, percent (randomized patients): (0.0%) | Cause of death: Heart failure, number (randomized patients): 51 | Cause of death: Heart failure, percent (randomized patients): (0.5%) | Cause of death: Liver failure, number (randomized patients): 0 | Cause of death: Liver failure, percent (randomized patients): (0.0%) | Cause of death: Multiorgan failure, number (randomized patients): 9 | Cause of death: Multiorgan failure, percent (randomized patients): (0.1%) | Cause of death: Myocardial infarction, number (randomized patients): 89 | Cause of death: Myocardial infarction, percent (randomized patients): (1.0%) | Cause of death: Other coronary artery disease, number (randomized patients): 4 | Cause of death: Other coronary artery disease, percent (randomized patients): (0.0%) | Cause of death: Other non-vascular cause, number (randomized patients): 8 | Cause of death: Other non-vascular cause, percent (randomized patients): (0.1%) | Cause of death: Other vascular cause, number (randomized patients): 44 | Cause of death: Other vascular cause, percent (randomized patients): (0.5%) | Cause of death: Pneumonia, number (randomized patients): 10 | Cause of death: Pneumonia, percent (randomized patients): (0.1%) | Cause of death: Pulmonary embolism, number (randomized patients): 3 | Cause of death: Pulmonary embolism, percent (randomized patients): (0.0%) | Cause of death: Renal failure, number (randomized patients): 2 | Cause of death: Renal failure, percent (randomized patients): (0.0%) | Cause of death: Respiratory failure, number (randomized patients): 13 | Cause of death: Respiratory failure, percent (randomized patients): (0.1%) | Cause of death: Ruptured aortic aneurysm, number (randomized patients): 1 | Cause of death: Ruptured aortic aneurysm, percent (randomized patients): (0.0%) | Cause of death: Sepsis, number (randomized patients): 7 | Cause of death: Sepsis, percent (randomized patients): (0.1%) | Cause of death: Stroke, number (randomized patients): 20 | Cause of death: Stroke, percent (randomized patients): (0.2%) | Cause of death: Sudden death, number (randomized patients): 60 | Cause of death: Sudden death, percent (randomized patients): (0.6%) | Cause of death: Suicida, number (randomized patients): 1 | Cause of death: Suicida, percent (randomized patients): (0.0%) | Cause of death: Trauma, number (randomized patients): 3 | Cause of death: Trauma, percent (randomized patients): (0.0%) | Cause of death: Unknown, number (randomized patients): 39 | Cause of death: Unknown, percent (randomized patients): (0.4%) | Cause of death: Unstable angina, number (randomized patients): 7 | Cause of death: Unstable angina, percent (randomized patients): (0.1%) | Cause of death: Valvular disease, number (randomized patients): 0 | Cause of death: Valvular disease, percent (randomized patients): (0.0%) | Cause of death: Vascular death, sub-classification missing, number (randomized patients): 0 | Cause of death: Vascular death, sub-classification missing, percent (randomized patients): (0.0%)

COC(=O)[C@H](c1ccccc1Cl)N1CCc2sccc2C1 [clopidogrel]
Cause of death: Aortic dissection, number (randomized patients): 2 | Cause of death: Aortic dissection, percent (randomized patients): (0.0%) | Cause of death: Arterial embolism, number (randomized patients): 2 | Cause of death: Arterial embolism, percent (randomized patients): (0.0%) | Cause of death: Cancer, number (randomized patients): 17 | Cause of death: Cancer, percent (randomized patients): (0.2%) | Cause of death: Cardiac arrhythmia, number (randomized patients): 29 | Cause of death: Cardiac arrhythmia, percent (randomized patients): (0.3%) | Cause of death: Death from bleeding (not related to trauma), number (randomized patients): 15 | Cause of death: Death from bleeding (not related to trauma), percent (randomized patients): (0.2%) | Cause of death: Endocarditis, number (randomized patients): 0 | Cause of death: Endocarditis, percent (randomized patients): (0.0%) | Cause of death: Heart failure, number (randomized patients): 62 | Cause of death: Heart failure, percent (randomized patients): (0.7%) | Cause of death: Liver failure, number (randomized patients): 1 | Cause of death: Liver failure, percent (randomized patients): (0.0%) | Cause of death: Multiorgan failure, number (randomized patients): 14 | Cause of death: Multiorgan failure, percent (randomized patients): (0.2%) | Cause of death: Myocardial infarction, number (randomized patients): 89 | Cause of death: Myocardial infarction, percent (randomized patients): (0.9%) | Cause of death: Other coronary artery disease, number (randomized patients): 4 | Cause of death: Other coronary artery disease, percent (randomized patients): (0.0%) | Cause of death: Other non-vascular cause, number (randomized patients): 11 | Cause of death: Other non-vascular cause, percent (randomized patients): (0.1%) | Cause of death: Other vascular cause, number (randomized patients): 55 | Cause of death: Other vascular cause, percent (randomized patients): (0.6%) | Cause of death: Pneumonia, number (randomized patients): 8 | Cause of death: Pneumonia, percent (randomized patients): (0.1%) | Cause of death: Pulmonary embolism, number (randomized patients): 8 | Cause of death: Pulmonary embolism, percent (randomized patients): (0.1%) | Cause of death: Renal failure, number (randomized patients): 5 | Cause of death: Renal failure, percent (randomized patients): (0.1%) | Cause of death: Respiratory failure, number (randomized patients): 12 | Cause of death: Respiratory failure, percent (randomized patients): (0.1%) | Cause of death: Ruptured aortic aneurysm, number (randomized patients): 0 | Cause of death: Ruptured aortic aneurysm, percent (randomized patients): (0.0%) | Cause of death: Sepsis, number (randomized patients): 23 | Cause of death: Sepsis, percent (randomized patients): (0.2%) | Cause of death: Stroke, number (randomized patients): 18 | Cause of death: Stroke, percent (randomized patients): (0.2%) | Cause of death: Sudden death, number (randomized patients): 77 | Cause of death: Sudden death, percent (randomized patients): (0.8%) | Cause of death: Suicida, number (randomized patients): 1 | Cause of death: Suicida, percent (randomized patients): (0.0%) | Cause of death: Trauma, number (randomized patients): 1 | Cause of death: Trauma, percent (randomized patients): (0.0%) | Cause of death: Unknown, number (randomized patients): 58 | Cause of death: Unknown, percent (randomized patients): (0.6%) | Cause of death: Unstable angina, number (randomized patients): 8 | Cause of death: Unstable angina, percent (randomized patients): (0.1%) | Cause of death: Valvular disease, number (randomized patients): 1 | Cause of death: Valvular disease, percent (randomized patients): (0.0%) | Cause of death: Vascular death, sub-classification missing, number (randomized patients): 1 | Cause of death: Vascular death, sub-classification missing, percent (randomized patients): (0.0%) | primary end point: first event of death from vascular causes, myocardial infarction (MI) or stroke, occurred in % of patients [1]: 11.7%
